What was measured:
[1] = tested on: cancer therapy cardiotoxicity; conditions: in vivo; cited from earlier work
[2] = tested on: myocardial infarction model in mice; experiment: In vivo myocardial infarction (ischemia/reperfusion) model in mice, infarct size; conditions: 24 h reperfusion; for effect on infarct size (in words): given 5 min before reperfusion
Experimental: (§1) In vivo myocardial infarction model in mice. […] Sodium chloride injection (50 μl) served as control treatment.
Infarct size measurement. For analysis of infarct size, mice were euthanized after 24 hours of reperfusion; hearts were excised and perfused with PBS over 5 min. After perfusion, the LCA was re-ligated in the same location as explicated before. Evans blue dye (1 ml of a 1% solution) was injected into the aorta and coronary arteries for delineation of the ischemic AAR from the non-ischemic zone. The tissue was wrapped in a clear food wrap and stored for one hour in a −20° C. freezer. The heart was then serially sectioned perpendicularly to the long axis in 1 mm slices, and each slice was weighed. The sections were incubated in 1% TTC for 5 min at 37° C. for demarcation of the viable and non-viable myocardium within the risk zone. Infarction, AAR, and non-ischemic left ventricle were assessed with computer-assisted planimetry by an observer blinded to sample identity. The size of the myocardial infarction was expressed as a percentage of the AAR.

[3] = tested on: BNIP3 and BAX interaction with mitochondria; experiment: Mechanistic read-outs in the area at risk of mouse hearts after vessel occlusion and reperfusion; assay type: in vivo, mice; conditions: for BNIP3 (and BAX) translocation to / interaction with mitochondria: after 10 min of reperfusion, peptide 5 min before reperfusion
Experimental: as §1
Immunoblotting. Tissue and human CM cells were lysed in a RIPS buffer (50 mM Tris-HCl, 150 mM NaCl, 0.5 mM EDTA, 1% NP-40 and protease- and phosphatase inhibitor, pH 7.4). Isolated mitochondria were lysed in a Mito-lyse buffer (200 mM sucrose, 10 mM HEPES, 1 mM EGTA, 1% Triton-X100 and protease- and phosphatase inhibitor, pH 7.4). The lysates were cleared by centrifugation (20.000×g, 15 min, 4° C.). Protein concentrations in supernatant were measured using DC Protein Assay (Bio-Rad). Samples were diluted into 4×LDS sample buffer and 10× Reducing Agent (Invitrogen) and were prepared for SDS-PAGE by heating to 95° C. for 5 min. Equivalent amounts of protein were separated using 4-12% Bis-Tris Gels (Invitrogen), transferred on to nitrocellulose and immunoblotted with primary antibodies. The used secondary antibodies were horseradish peroxidise conjugated goat anti-mouse or anti-rabbit IgG (Invitrogen). Immunoblotting was detected by ECL (Thermo Scientific) and imaged on an Imager 600 (Amersham).
Immunoprecipitation. Immunoprecipitation were performed using protein G-coupled Dynabeads (Invitrogen). 500 μg lysed proteins were incubated with 2 μg antibody over night at 4° C. with shaking in PBS buffer containing 1 mM DTT, 0.005% Brij35 and protease-phosphatase inhibitors. Next day 20 μl Dynabeads were added and the solution was incubated again for 1 h. The precipitated immune complex was washed 2 times and then resuspended in eluation buffer containing LDS-Sample Buffer (1:4) und Reducing Agent (1:10) (Invitrogen) in PBS and heated for 5 min at 95° C. After removal of the Dynabeads the Eluate were analysed via immunoblotting.
Caspase-3 activity was measured using the Caspase 3 Assay Kit from Abcam (#ab39401). Murine hearts were harvested after 30 min ischemia and 4 h reperfusion, area at risk was isolated, lysed in containing buffer and the assay was performed according to manufacturer's instructions.
(§2) Swelling Assay. Mitochondrial swelling was measured by light scattering at 540 nm in a microplate absorbance reader FLUOstar Omega (BMG Labtech) at RT. The final assay volume was 200 μl, containing mitochondria at 0.5 mg/ml in buffer containing 250 mM sucrose, 10 mM HEPES, […], pH 7.4.

[4] = tested on: human ventricular cardiomyocytes derived from human induced pluripotent stem cells (humanCM); experiment: In vitro reoxygenation after hypoxia in humanCM; assay type: cell-based; conditions: 2 h of reoxygenation after hypoxia; for mitochondrial inner membrane depolarization / loss of mitochondrial inner membrane potential: JC-1
Experimental: Cell culture. Human iPSC-derived ventricular cardiomyocytes (humanCM) were obtained from (axol) and were cultivated according to the manufacture's specification.
To simulate vessel occlusion, cells were incubated in buffer (113 mM NaCl, 4.7 mM KCl, 12 mM HEPES, 1.2 mM MgSO4, 30 mM taurine, 1.3 mM CaCl2), pH 7.4) under 1% O2, 37° C. Reoxygenation was performed in buffer supplemented with 5.5 mM glucose under 21% O2, 37° C.
JC-1 Assay. To analyze mitochondrial inner membrane potential in humanCM cells were stained with 5′,6,6′-tetrachloro-1,1′,3,3′-tetraethylbenzimidazolylcarbocyanin Iodid (JC-1). Cells were incubated with 6 μM JC-1 in media at 37° C. for 30 min. After washing cells with PBS buffer at 37° C. they were fixed with 4% PFA for 15 min at room temperature. DAPI staining was performed and cells were analysed using EVOS FL (life Technologies).

[5] = tested on: transient middle cerebral artery occlusion (tMCAO); experiment: Mouse model of focal cerebral reperfusion (tMCAO), brain infarct size; assay type: in vivo; conditions: 24 h of reperfusion after 30-min tMCAO, vs vehicle
Experimental: We subjected mice to 24 h of reperfusion after a 30-min transient middle cerebral artery occlusion (tMCAO). BNIP3-8B treatment immediately post tMCAO markedly reduces the infarct size by 52% (FIG. 12).

[6] = tested on: myocardial infarction model in swine; experiment: In vivo myocardial infarction model in pigs, infarct size; conditions: 60 min LAD occlusion, 4 h of reperfusion, IV 5 min before reperfusion, vs vehicle
Source text: In vivo myocardial infarction model in pigs. Following induction of anesthesia, a small incision was made over the femoral artery and vein; the vessels were isolated. A small opening was made in the artery and a sheath was introduced. In addition, a sheath was placed in the femoral vein or other appropriate vein to allow for emergency drug administration if necessary. A blood sample was taken prior to administration of heparin and was used to establish a baseline Activated Clotting Time (ACT) which was recorded. Subsequently, as directed by the surgeon, heparin (250 to 350 IU/kg) was administered as needed to achieve and maintain an ACT that is two times the level of the baseline ACT. Following the initial bolus of heparin ACT was recorded again and monitored at least every 60 minutes thereafter, until completion of surgery.
An appropriate guide catheter was advanced into the ostium of the left anterior descending artery (LAD) using visual guidance provided by fluoroscopy. Non-ionic contrast was used for all procedures. A balloon catheter was introduced by advancing it through the guide catheter to the left anterior descending (LAD) coronary artery. The balloon was advanced into the coronary arteries through a guide catheter to a suitable place above the 1st diagonal branch of the LAD. […] Incidence supportive drugs and defibrillation were recorded in the study record. […]

HL-1 cells = experiment: Doxorubicin-induced mitochondrial swelling in HL-1 cells (OD540); assay type: cell-based; conditions: 5 μM Doxorubicin given simultaneously, 30 min
Experimental: HL-1 cells were cultured in Claycomb medium as per manufacturer's protocol. The cells were treated with 5 μM Doxorubicin and 2 nmol TAT-BNIP3-8B for 30 min.
as §2

[7] = tested on: isolated adult cardiomyocytes; conditions: survival after 24 h
Experimental: FIG. 7. A Uptake of fluorescence labelled TAT-BNIP3-8B in different organs after 5 min of reperfusion post vessel occlusion. TAT-BNIP3-8B was given 5 min before starting reperfusion. B Survival of isolated adult cardiomyocytes treated with TAT-BNIP3-8B and TAT-BNIP3-8C control peptide after 24 h.

[8] = 37° C.
Experimental: FIG. 8. TAT-BNIP3-8B pharmacokinetics. Fluorescence labelled BNIP3-8B was incubated in human serum (A), plasma (B), and whole blood (C) at 37° C. for indicated time durations and monitored by Western blot. Proteinase K treatment served as control.

BNIP3 = BNIP3 (Mus musculus, UniProt O55003); experiment: BNIP3/TAT-BNIP3-8B overlay assay and docking simulation; assay type: binding; conditions: data not shown
Experimental: Docking Simulation. Experiments were performed using Autodock Vina^52 and HADDOCK^53. The structure of BAX (pdb-ID: 4S0O) was taken from the Protein Data Bank, whereas the structure of BNIP3 and peptide BNIP3-8B were modelled using Modeller9.15^47. The template structures correspond to PDB codes 2k7w and 2ka1. The created model was energy minimized using NAMD2.9^54 and the CHARMM36 force field.

[9] = after reperfusion post vessel occlusion, peptide given 5 min before reperfusion
Experimental: In vivo myocardial infarction model in mice. Wild-type and Bnip3 deficient (Bnip3^−/−) mice were anesthetized by i.p. injection of ketamine (100 mg/kg) and xylazin (10 mg/kg) and intubated. Mechanical ventilation parameters were set to a tidal volume of 2.1 to 2.5 ml and a respiratory rate of 140 breaths per min using a mouse mini-ventilator. Deep anaesthesia was maintained by adding 2 vol % isoflurane to the ventilation gas. The chest was opened through a lateral thoracotomy (1 cm left lateral incision between the 3rd and 4th ribs). A 6-0 prolene suture was placed around the left coronary artery (LCA) and a piece of soft silicon tubing placed over the artery. Coronary occlusion was achieved by tightening and tying the suture. After 30 min of occlusion, the silicon tubing was removed and the suture left in place. For longer reperfusion times the chest were closed using 4-0 prolene. 2, 6 and 9 nmol (in 50 μl 0.9% sodium chloride) BNIP3 were injected into the left ventricular cavity 5 min before vessel occlusion. Peptides with 20 amino acids (2 nmol/50 μl) and peptides with 8 amino acids (8 nmol/50 μl) in NaCl were injected 5 min before reperfusion. Sodium chloride injection (50 μl) served as control treatment.
Peptides. […] For uptake and binding studies, peptides were labelled with a fluorophore.

I/R injury = conditions: in vivo; cited from earlier work
[10] = tested on: infarct size in STEMI patients; conditions: cited from earlier work; for infarct size / effect in patients: clinical trials, administered prior to PPCI

Molecule: COc1ccccc1OCCNCC(O)COc1cccc2[nH]c3ccccc3c12 (stereo not shown) [carvedilol]
- prevention of cardiotoxicity / cardiomyopathy in cancer patients [1]: failed to show a benefit

Molecule: TAT-BNIP3-20C: control peptide: TAT PTD attached to amino acids 42-61 of BNIP3 (LDAQHESGRSSSKSSHCDSP)
- effect on infarct size (in words) ([2]; wild-type mice): not effective
- BNIP3 (and BAX) translocation to / interaction with mitochondria [3]: does not
- apoptotic and necrotic cell death [4]: not effective
- translocation of human BNIP3 to mitochondria [4]: not effective
- mitochondrial inner membrane depolarization / loss of mitochondrial inner membrane potential [4]: not effective

Molecule: TAT-BNIP3-8B: TAT PTD covalently attached to WVELHFFN (BNIP3 amino acids 13-20 with Ser-19 to Phe-19 substitution, SEQ ID NO: 8)
- reduction of infarct size ([2]; wild-type mice, peptide into left ventricle 5 min before reperfusion, vs vehicle): up to 40%
- interaction with endogenous BNIP3 / BAX (co-immunoprecipitation) ([3]; 5 min of reperfusion, fluorescence-labelled peptide): endogenous BNIP3 and BAX mono, homo- and heterodimers co-immunoprecipitated
- down-stream cell death machinery (mitochondrial swelling, BAX activation, cytochrome c release, caspase-3 activity) ([3]; 10 min to 4 h of reperfusion): inhibition of the down-stream cell death machinery
- BNIP3 (and BAX) translocation to / interaction with mitochondria [3]: prevents BNIP3 and BAX translocation to the mitochondria
- BNIP3/BAX oligomerization ([3]; cytosol of area at risk, 10 minutes reperfusion, blue native-PAGE): strongly inhibited
- apoptotic and necrotic cell death [4]: markedly inhibits necrotic and apoptotic cell death
- mitochondrial inner membrane depolarization / loss of mitochondrial inner membrane potential [4]: markedly inhibits
- reduction of cerebral infarct size [5]: 52%
- reduction of myocardial infarct size [6]: 56%
- mitochondrial swelling (OD540) (HL-1 cells): prevents mitochondrial swelling
- toxicity in cardiomyocytes [7]: no signs of overt toxicity
- half-life in human serum, plasma and whole blood [8]: enables its in vivo inhibitory capacity
- binding to BNIP3 (BNIP3): binds to BNIP3
- uptake / tissue distribution [9]: taken up by the heart, spleen and liver and is present in the plasma

Molecule: CC(C)CCC[C@@H](C)[C@H]1CC[C@H]2[C@@H]3CC/C(=N\O)[C@](C)(CCCO)[C@H]3CC[C@]12C [TRO40303]
- infarct size in animal / pre-clinical studies (I/R injury): reduce infarct size
- infarct size / effect in patients [10]: failed to reduce infarct size
- adverse events in patients ([10]; compared with the placebo arm): more adverse events

Molecule: elamipretide
- infarct size in animal / pre-clinical studies (I/R injury): reduce infarct size
- infarct size / effect in patients [10]: failed to reduce infarct size

Molecule: TAT-BNIP3-8C: control peptide: BNIP3-8B with Phe-18 to Ala-18 and His-17 to Ala-17 substitutions (WVELAASN)
- effect on infarct size (in words) ([2]; wild-type mice): does not appreciably affect the infarct size
- BNIP3 (and BAX) translocation to / interaction with mitochondria [3]: does not
- apoptotic and necrotic cell death [4]: not effective
- mitochondrial inner membrane depolarization / loss of mitochondrial inner membrane potential [4]: not effective

B1: BNIP3: BNIP3 protein restituted to BNIP3 deficient mice (TAT-BNIP3 doses, FIG. 1C) (protein)
chain: MSQSGEENLQGSWVELHFSNGNGSSVPASVSIYNGDMEKILLDAQHESGRSSSKSSHCDSPPRSQTPQDTNRAEIDSHSFGEKNSTLSEEDYIERRREVESILKKNSDWIWDWSSRPENIPPKEFLFKHPKRTATLSMRNTSVMKKGGIFSADFLKVFLPSLLLSHLLAIGLGIYIGRRLTTSTSTF
- infarct size after restitution of BNIP3 ([2]; BNIP3 deficient (Bnip3−/−) mice): infarct sizes comparable to wild-type mice in a dose-dependent manner
- mitochondrial BAX translocation after addition of BNIP3 ([3]; BNIP3 deficient mouse hearts, early phase of reperfusion): restored the BAX translocation

— patent US12540166B2, “BNIP3 peptides for treatment of reperfusion injury” (Bimyo GmbH, priority 2019, dated 2026)
